Data taken from ChEMBL document CHEMBL4823282, “Novel Broad-Spectrum Antimicrobial Peptide Derived from Anoplin and Its Activity on Bacterial Pneumonia in Mice” (J Med Chem, 2021).
pIC50: −log10 of the molar value. Values after ≈ are worked out from the molar mass of the structure shown. Where a SMILES comes first, the peptide text is derived from it.

Experiments:
Staphylococcus aureus = assay: Antibacterial activity against Staphylococcus aureus ATCC 25923 incubated for 18 hrs by CLSI based broth dilution method; format: functional
Bacillus subtilis = assay: Antibacterial activity against Bacillus subtilis ATCC 23857 incubated for 18 hrs by CLSI based broth dilution method; format: functional
Enterococcus faecalis = assay: Antibacterial activity against Enterococcus faecalis ATCC 29212 incubated for 18 hrs by CLSI based broth dilution method; format: functional
[1] = test system: Staphylococcus epidermidis; assay: Antibacterial activity against Staphylococcus epidermidis ATCC 12228 incubated for 18 hrs by CLSI based broth dilution method; format: functional
Escherichia coli = assay: Antibacterial activity against Escherichia coli ATCC 25922 incubated for 18 hrs by CLSI based broth dilution method; format: functional
Pseudomonas aeruginosa [2] = assay: Antibacterial activity against Pseudomonas aeruginosa ATCC 27853 incubated for 18 hrs by CLSI based broth dilution method; format: functional
Klebsiella pneumoniae = assay: Antibacterial activity against Klebsiella pneumoniae ATCC 700603 incubated for 18 hrs by CLSI based broth dilution method; format: functional
Acinetobacter baumannii = assay: Antibacterial activity against Acinetobacter baumannii ATCC 19606 incubated for 18 hrs by CLSI based broth dilution method; format: functional; conditions: ATCC 19606 = CIP 70.34 = JCM 6841
Erythrocyte = assay: Hemolytic activity in BALB/C mouse erythrocytes incubated for 1 hr by absorbance method; format: ADME, cell-based
[3] = Cytotoxicity against human glomerular mesangial cells incubated for 12 hrs by MTT assay; format: cell-based; conditions: Glomerular mesangial cell
Bacteria [4] = assay: Antibacterial activity against bacteria incubated for 18 hrs by CLSI based broth dilution method; format: functional
Fungi = assay: Antibacterial activity against fungi incubated for 18 hrs by CLSI based broth dilution method; format: functional
[5] = Selectivity ratio of MHC10 for BALB/C mouse erythrocytes to MIC for bacteria; format: toxicity
[6] = Selectivity ratio of MHC10 for BALB/C mouse erythrocytes to MIC for fungi; format: toxicity
Bacteria [7] = assay: Antibacterial activity against Gram-positive bacteria incubated for 18 hrs by CLSI based broth dilution method; format: functional
[8] = Selectivity ratio of MHC10 for BALB/C mouse erythrocytes to MIC for gram positive bacteria; format: toxicity
[9] = Selectivity ratio of MHC10 for BALB/C mouse erythrocytes to MIC for gram-negative bacteria; format: toxicity
Pseudomonas aeruginosa [10] = assay: Synergistic antibacterial activity against Pseudomonas aeruginosa ATCC 27853 at 2 times MIC incubated for 18 to 24 hrs in presence of 2 times MIC of rifampicin by broth microdilution assay based checkerboard assay; format: functional; conditions: time 18-24 hrs
Pseudomonas aeruginosa [11] = assay: Synergistic antibacterial activity against Pseudomonas aeruginosa ATCC 27853 at 2 times MIC incubated for 18 to 24 hrs in presence of 2 times MIC of polymyxin B by broth microdilution assay based checkerboard assay; format: functional; conditions: time 18-24 hrs
Bacteria [12] = assay: Antibacterial activity against Gram-negative bacteria incubated for 18 hrs by CLSI based broth dilution method; format: functional

Row | MIC (Staphylococcus aureus) [µM] | MIC (Bacillus subtilis) [µM] | MIC (Enterococcus faecalis) [µM] | MIC [1] [µM] | MIC (Escherichia coli) [µM] | MIC (Pseudomonas aeruginosa [2]) [µM] | MIC (Klebsiella pneumoniae) [µM] | MIC (Acinetobacter baumannii) [µM] | MIC (Bacteria [4]) [µM] | MIC (Fungi) [µM] | MIC (Bacteria [7]) [µM] | MIC (Bacteria [12]) [µM] | SMILES | MHC10 (Erythrocyte) | pIC50 [3] | selectivity ratio [5] | selectivity ratio [6] | selectivity ratio at 18 h [8] | selectivity ratio [9] | FIC (Pseudomonas aeruginosa [10]) | FIC (Pseudomonas aeruginosa [11])
1 | 16 (≈ 21.1 µg/mL) | 16 (≈ 21.1 µg/mL) | 64 (≈ 84.3 µg/mL) | 64 (≈ 84.3 µg/mL) | 32 (≈ 42.2 µg/mL) | 32 (≈ 42.2 µg/mL) | 32 (≈ 42.2 µg/mL) | 64 (≈ 84.3 µg/mL) | 26.9 (≈ 35.5 µg/mL) | 26.9 (≈ 35.5 µg/mL) | 32 (≈ 42.2 µg/mL) |  | CC[C@H](C)[C@H](NC(=O)[C@H](CCCNC(=N)N)NC(=O)[C@H](CCCCN)NC(=O)[C@H](Cc1ccccc1)NC(=O)[C@H](Cc1ccccc1)NC(=O)CN)C(=O)N[C@@H](CCCNC(=N)N)C(=O)N[C@H](C(=O)N[C@@H](Cc1ccccc1)C(=O)N[C@@H](Cc1ccccc1)C(N)=O)[C@@H](C)O (H-GFFKRIRTFF-NH2) | >= 512 uM | 4.05 | 19 | 19 | 16 | 22.6 | 0.5625 | 0.5625
2 | 16 (≈ 23 µg/mL) | 16 (≈ 23 µg/mL) | 64 (≈ 92.1 µg/mL) | 128 (≈ 184 µg/mL) | 16 (≈ 23 µg/mL) | 16 (≈ 23 µg/mL) | 32 (≈ 46 µg/mL) | 128 (≈ 184 µg/mL) | 32 (≈ 46 µg/mL) | 32 (≈ 46 µg/mL) | 38.1 (≈ 54.8 µg/mL) |  | CC[C@H](C)[C@H](NC(=O)[C@H](CCCNC(=N)N)NC(=O)[C@H](CCCCN)NC(=O)[C@H](Cc1ccccc1)NC(=O)[C@H](Cc1c[nH]c2ccccc12)NC(=O)[C@@H](N)CCCCN)C(=O)N[C@@H](CCCCN)C(=O)N[C@H](C(=O)N[C@@H](Cc1ccccc1)C(=O)N[C@@H](Cc1c[nH]c2ccccc12)C(N)=O)[C@@H](C)O (H-KWFKRIKTFW-NH2) | >= 512 uM | 4.10 | 16 | 16 | 13.4 | 19 | 0.3125 | 0.25
3 | 16 (≈ 21.1 µg/mL) | 16 (≈ 21.1 µg/mL) | 64 (≈ 84.3 µg/mL) | 64 (≈ 84.3 µg/mL) | 32 (≈ 42.2 µg/mL) | 32 (≈ 42.2 µg/mL) | 32 (≈ 42.2 µg/mL) | 64 (≈ 84.3 µg/mL) | 29.3 (≈ 38.7 µg/mL) | 29.3 (≈ 38.7 µg/mL) | 32 (≈ 42.2 µg/mL) |  | CC[C@H](C)[C@H](NC(=O)[C@H](CCCNC(=N)N)NC(=O)[C@H](CCCNC(=N)N)NC(=O)[C@H](Cc1ccccc1)NC(=O)[C@H](Cc1ccccc1)NC(=O)CN)C(=O)N[C@@H](CCCCN)C(=O)N[C@H](C(=O)N[C@@H](Cc1ccccc1)C(=O)N[C@@H](Cc1ccccc1)C(N)=O)[C@@H](C)O (H-GFFRRIKTFF-NH2) | >= 512 uM | 4.04 | 17.4 | 17.4 | 16 | 19 | 0.3125 | 0.5
4 | 16 (≈ 21.8 µg/mL) | 16 (≈ 21.8 µg/mL) | 64 (≈ 87.2 µg/mL) | 4 (≈ 5.45 µg/mL) | 16 (≈ 21.8 µg/mL) | 16 (≈ 21.8 µg/mL) | 32 (≈ 43.6 µg/mL) | 64 (≈ 87.2 µg/mL) | 19 (≈ 25.9 µg/mL) | 19 (≈ 25.9 µg/mL) | 16 (≈ 21.8 µg/mL) | 22.6 (≈ 30.8 µg/mL) | C[C@@H](O)[C@H](NC(=O)[C@H](CCCCN)NC(=O)[C@H](Cc1c[nH]c2ccccc12)NC(=O)[C@H](CCCNC(=N)N)NC(=O)[C@H](CCCCN)NC(=O)[C@H](Cc1ccccc1)NC(=O)[C@H](Cc1ccccc1)NC(=O)CN)C(=O)N[C@@H](Cc1ccccc1)C(=O)N[C@@H](Cc1ccccc1)C(N)=O (H-GFFKRWKTFF-NH2) | >= 512 uM | 4.32 | 26.9 | 26.9 | 32 | 22.6 | 0.3125 | 0.25
5 | 16 (≈ 21.9 µg/mL) | 4 (≈ 5.47 µg/mL) | 64 (≈ 87.5 µg/mL) | 4 (≈ 5.47 µg/mL) | 16 (≈ 21.9 µg/mL) | 16 (≈ 21.9 µg/mL) | 32 (≈ 43.8 µg/mL) | 64 (≈ 87.5 µg/mL) | 16 (≈ 21.9 µg/mL) | 16 (≈ 21.9 µg/mL) | 11.3 (≈ 15.5 µg/mL) |  | CC[C@H](C)[C@H](NC(=O)[C@H](CCCNC(=N)N)NC(=O)[C@H](CCCCN)NC(=O)[C@H](Cc1ccccc1)NC(=O)[C@H](Cc1c[nH]c2ccccc12)NC(=O)CN)C(=O)N[C@@H](CCCCN)C(=O)N[C@H](C(=O)N[C@@H](Cc1ccccc1)C(=O)N[C@@H](Cc1c[nH]c2ccccc12)C(N)=O)[C@@H](C)O (H-GWFKRIKTFW-NH2) | 384 µM | 4.01 | 24 | 24 | 34 | 17 | 0.3125 | 0.25
6 | 8 (≈ 10.8 µg/mL) | 8 (≈ 10.8 µg/mL) | 32 (≈ 43.1 µg/mL) | 32 (≈ 43.1 µg/mL) | 32 (≈ 43.1 µg/mL) | 32 (≈ 43.1 µg/mL) | 32 (≈ 43.1 µg/mL) | 32 (≈ 43.1 µg/mL) | 17.4 (≈ 23.5 µg/mL) | 17.4 (≈ 23.5 µg/mL) | 16 (≈ 21.5 µg/mL) |  | CC[C@H](C)[C@H](NC(=O)[C@H](CCCNC(=N)N)NC(=O)[C@H](CCCNC(=N)N)NC(=O)[C@H](Cc1ccccc1)NC(=O)[C@H](Cc1ccccc1)NC(=O)CN)C(=O)N[C@@H](CCCNC(=N)N)C(=O)N[C@H](C(=O)N[C@@H](Cc1ccccc1)C(=O)N[C@@H](Cc1ccccc1)C(N)=O)[C@@H](C)O (H-GFFRRIRTFF-NH2) | >= 512 uM | 4.28 | 29.3 | 29.3 | 32 | 26.9 | 0.5625 | 0.5625
7 | ≥ 512 | ≥ 512 | ≥ 512 | ≥ 512 | ≥ 512 | ≥ 512 | ≥ 512 | ≥ 512 | ≥ 512 | ≥ 512 | ≥ 512 | ≥ 512 | CC(C)C[C@H](NC(=O)[C@H](C)NC(=O)[C@@H](NC(=O)[C@H](CCCCN)NC(=O)[C@H](C)NC(=O)[C@H](CCCNC(=N)N)NC(=O)[C@H](CCCCN)NC(=O)[C@H](C)NC(=O)[C@H](C)NC(=O)CN)[C@@H](C)O)C(N)=O (H-GAAKRAKTAL-NH2) | >= 512 uM | ≤ 3.29 | 1 | 1 | 1 | 1 |  | 
8 | ≥ 512 | ≥ 512 | ≥ 512 | ≥ 512 | ≥ 512 | ≥ 512 | ≥ 512 | ≥ 512 | ≥ 512 | ≥ 512 | ≥ 512 | ≥ 512 | CC(C)C[C@H](NC(=O)[C@H](C)NC(=O)[C@@H](NC(=O)[C@H](CCCCN)NC(=O)[C@H](C)NC(=O)[C@H](CCCNC(=N)N)NC(=O)[C@H](CCCCN)NC(=O)[C@H](CC(C)C)NC(=O)[C@H](C)NC(=O)CN)[C@@H](C)O)C(N)=O (H-GALKRAKTAL-NH2) | >= 512 uM | ≤ 3.29 | 1 | 1 | 1 | 1 |  | 
9 | ≥ 512 | ≥ 512 | ≥ 512 | ≥ 512 | ≥ 512 | ≥ 512 | ≥ 512 | ≥ 512 | ≥ 512 | ≥ 512 | ≥ 512 | ≥ 512 | C[C@H](NC(=O)[C@H](C)NC(=O)[C@@H](NC(=O)[C@H](CCCCN)NC(=O)[C@H](C)NC(=O)[C@H](CCCNC(=N)N)NC(=O)[C@H](CCCCN)NC(=O)[C@H](C)NC(=O)[C@H](C)NC(=O)CN)[C@@H](C)O)C(N)=O (H-GAAKRAKTAA-NH2) | >= 512 uM | ≤ 3.29 | 1 | 1 | 1 | 1 |  | 

Row | SMILES | MIC (Staphylococcus aureus) [µM] | MIC (Bacillus subtilis) [µM] | MIC (Enterococcus faecalis) [µM] | MIC [1] [µM] | MIC (Escherichia coli) [µM] | MIC (Pseudomonas aeruginosa [2]) [µM] | MIC (Klebsiella pneumoniae) [µM] | MIC (Acinetobacter baumannii) [µM] | MIC (Bacteria [4]) [µM] | MIC (Fungi) [µM] | MIC (Bacteria [7]) [µM] | MIC (Bacteria [12]) [µM] | MHC10 (Erythrocyte) | pIC50 [3] | selectivity ratio [5] | selectivity ratio [6] | selectivity ratio at 18 h [8] | selectivity ratio [9] | FIC (Pseudomonas aeruginosa [10]) | FIC (Pseudomonas aeruginosa [11])
10 | CC(C)C[C@H](NC(=O)[C@H](CC(C)C)NC(=O)[C@@H](NC(=O)[C@H](CCCCN)NC(=O)[C@H](Cc1c[nH]c2ccccc12)NC(=O)[C@H](CCCNC(=N)N)NC(=O)[C@H](CCCCN)NC(=O)[C@H](CC(C)C)NC(=O)[C@H](CC(C)C)NC(=O)CN)[C@@H](C)O)C(N)=O (H-GLLKRWKTLL-NH2) | 128 (≈ 157 µg/mL) | 128 (≈ 157 µg/mL) | 256 (≈ 314 µg/mL) | 16 (≈ 19.6 µg/mL) | 64 (≈ 78.5 µg/mL) | 64 (≈ 78.5 µg/mL) | 64 (≈ 78.5 µg/mL) | 256 (≈ 314 µg/mL) | 64 (≈ 78.5 µg/mL) | 64 (≈ 78.5 µg/mL) | 90.5 (≈ 111 µg/mL) | 45.3 (≈ 55.6 µg/mL) | >= 512 uM | ≤ 3.29 | 8 | 8 | 5.66 | 11.3 | 0.5625 | 0.3125
